Assay results from patent US20050282877A1, “Method of decreasing inflammation in kidney transplantion using angiotensin receptor blockers” (priority 2004, published 2005).

What was measured:
[1] = cited from earlier work
plasma proteins = conditions: in vivo; cited from earlier work
urinary H2O2 = experiment: Detection of urinary hydrogen peroxide (H2O2) in kidney transplant recipients with CAN; format: in vivo, human; conditions: mean±SD
Method: The study, enrollment process, and protocols described herein were approved by the University of Wisconsin Institutional Review Board. Individuals with evidence of chronic allograft dysfunction have allograft functionality greater than 6 months with serum creatinine≧0.3 mg/dl above discharge creatinine. In the absence of acute rejection, these individuals have obstructive uropathy or urinary tract infection. To be eligible for the study, individuals also had concomitant evidence of elevated blood pressure (>140/80) and/or proteinuria (>2+ on dipstick urinalysis or spot urine protein-to-creatinine ratio>1).
(§1) Once identified, study subjects were randomized and treated with either losartan (25-100 mg) as part of their anti-hypertensive regimen or with other types of anti-hypertensive agents, e.g., calcium channel blockers. Agents functioning as AT1R blockers were excluded. Neither group received ACE inhibitors. Study subjects were maintained on their standard immunosuppressive regimen (corticosteroids 5-10 mg orally daily; mycophenolate mofetil 500 to 1000 mg orally twice a day; and calcineurin inhibition with either tacrolimus (target levels 2-5 ng/ml), cyclosporine A (target levels 100-150 ng/ml), or rapamycin (target levels 5-15 ng/ml ).
(§2) Study subjects underwent biopsies at the initiation of the study. Simultaneously, whole blood samples were obtained for analysis of peripheral blood lymphocyte proliferation and stimulated cytokine production. Subsequent whole blood samples were obtained at three-month intervals for serial analyses. […] Estimated glomerular filtration rate (eGFR) was assessed using the second equation derived by Nankivell. […]
The Amplex Red Hydrogen Peroxide/Peroxidase Assay Kit (Molecular Probes, Eugene, Ore.) was used according to the manufacturer's instructions to measure H2O2. […] A microplate reader with fluorescence emission detection at 590 nm was used to measure H2O2 levels. H2O2 concentrations were read from the standard curve.

[2] = tested on: peripheral blood lymphocytes (PBLs); experiment: Proliferation assay ([3H]-thymidine) of CD3/CD28-stimulated PBLs from CAN patients; format: in vivo, human
Method: Once identified, study subjects were randomized and treated with either losartan (25-100 mg) as part of their anti-hypertensive regimen or with other types of anti-hypertensive agents, e.g., calcium channel blockers. Agents functioning as AT1R blockers were excluded. Neither group received ACE inhibitors. Study subjects were maintained on their standard immunosuppressive regimen (corticosteroids 5-10 mg orally daily; mycophenolate mofetil 500 to 1000 mg orally twice a day; and calcineurin inhibition with either tacrolimus (target levels 2-5 ng/ml), cyclosporine A (target levels 100-150 ng/ml), or rapamycin (target levels 5-15 ng/ml ). Eight to nine milliliters of whole blood taken at each time point from each individual were incubated at room temperature in 40 ml ACK lysis buffer (150 mM NH4Cl, 10 mM KHCO3, 0.1 mM Na2EDTA, pH 7.3) for 10 minutes to lyse red blood cells. Samples were then centrifuged at 1000 rpm. The supernatant was discarded. Cells were resuspended in 10 ml complete RPMI media (RPMI-1640, BioWhitaker, Walkersville, Md.) supplemented with FCS (Sigma Aldrich, St. Louis, Mo.); 2 mM L-glutamine (BioWhitaker); 50 μM 2-β-mercaptoethanol (Sigma Aldrich); 100 U/ml penicillin; and 100 μg/ml streptomycin sulfate (Sigma Aldrich). Twenty μl of this sample was removed for cell enumeration. Forty ml of complete RPMI media was then added to the remaining sample and this was centrifuged at 1000 rpm for 10 minutes. The resulting PBL pellet was resuspended in complete RPMI media at a concentration of 1.5×10^6 cells per ml. CD3/CD28-coated plates were coated with antibody diluted in PBS (1 mg/mI). […] Some plates were analyzed immediately after the overnight incubation. Other plates were frozen at 20EC and then analyzed within 30 days of the initial study. [^3H]-Thymidine incorporation was then determined using a Packard TopCount NXT scintillation plate reader. […] The Δ proliferation index was then calculated by assessing the difference between the proliferation index at baseline and the proliferation index at various study time points as indicated.

IFN-Γ = experiment: ELISpot assay for T cell generation of IFN-Γ in PBLs from CAN patients; format: in vivo, human
Method: Once identified, study subjects were randomized and treated with either losartan (25-100 mg) as part of their anti-hypertensive regimen or with other types of anti-hypertensive agents, e.g., calcium channel blockers. Agents functioning as AT1R blockers were excluded. Neither group received ACE inhibitors. Study subjects were maintained on their standard immunosuppressive regimen (corticosteroids 5-10 mg orally daily; mycophenolate mofetil 500 to 1000 mg orally twice a day; and calcineurin inhibition with either tacrolimus (target levels 2-5 ng/ml), cyclosporine A (target levels 100-150 ng/ml), or rapamycin (target levels 5-15 ng/ml ). Eight to nine milliliters of whole blood taken at each time point from each individual were incubated at room temperature in 40 ml ACK lysis buffer (150 mM NH4Cl, 10 mM KHCO3, 0.1 mM Na2EDTA, pH 7.3) for 10 minutes to lyse red blood cells. Samples were then centrifuged at 1000 rpm. The supernatant was discarded. Cells were resuspended in 10 ml complete RPMI media (RPMI-1640, BioWhitaker, Walkersville, Md.) supplemented with FCS (Sigma Aldrich, St. Louis, Mo.); 2 mM L-glutamine (BioWhitaker); 50 μM 2-β-mercaptoethanol (Sigma Aldrich); 100 U/ml penicillin; and 100 μg/ml streptomycin sulfate (Sigma Aldrich). Twenty μl of this sample was removed for cell enumeration. Forty ml of complete RPMI media was then added to the remaining sample and this was centrifuged at 1000 rpm for 10 minutes. The resulting PBL pellet was resuspended in complete RPMI media at a concentration of 1.5×10^6 cells per ml. ELISpot assays were conducted according to the manufacturer's directions (Cellular Technology Ltd., Cleveland, Ohio). Briefly, after plating cells in the proliferation assay, the balance of the cells unused in that assay were used for the ELISpot assay at a concentration of 3×10^6 cells per ml. One hundred μl of RPMI media were added to each well with a multichannel pipetter. Aliquots of treated and untreated cells (300 μl) were added to the IFN-Γ and IL-5 wells with serial two-fold dilutions. The last row served as a media control. ELISpot plates were incubated for two days at 37EC. Plates were washed three times with PBS and then washed three times with PBS/Tween. Secondary detection antibodies (OptElA, IFN, and IL-5 obtained from the aforementioned kits) were diluted at 4 μl/ml in 1% BSA/PBS and added to the plates for 24 hours at 4EC. The plates were then washed four times with PBS/Tween. Streptavidin alkaline phosphatase 1:1000 (Dako Cytomation, Glostrop, Denmark, catalog no. D0396) 100 μl/well diluted in 1% BSA/PBS/Tween was then added to the plates at room temperature for two hours. […] Plate images were then scanned into computer images and spots analyzed using Immunospot-brand software (from CTL Technologies).

IL-4 or IL-5 = experiment: ELISpot assay for IL-4 or IL-5 production in PBLs from CAN patients; format: in vivo, human; conditions: following institution of ARB therapy (data not shown)
Method: Once identified, study subjects were randomized and treated with either losartan (25-100 mg) as part of their anti-hypertensive regimen or with other types of anti-hypertensive agents, e.g., calcium channel blockers. Agents functioning as AT1R blockers were excluded. Neither group received ACE inhibitors. Study subjects were maintained on their standard immunosuppressive regimen (corticosteroids 5-10 mg orally daily; mycophenolate mofetil 500 to 1000 mg orally twice a day; and calcineurin inhibition with either tacrolimus (target levels 2-5 ng/ml), cyclosporine A (target levels 100-150 ng/ml), or rapamycin (target levels 5-15 ng/ml ). ELISpot assays were conducted according to the manufacturer's directions (Cellular Technology Ltd., Cleveland, Ohio). Briefly, after plating cells in the proliferation assay, the balance of the cells unused in that assay were used for the ELISpot assay at a concentration of 3×10^6 cells per ml. One hundred μl of RPMI media were added to each well with a multichannel pipetter. Aliquots of treated and untreated cells (300 μl) were added to the IFN-Γ and IL-5 wells with serial two-fold dilutions. The last row served as a media control. ELISpot plates were incubated for two days at 37EC. […] Plate images were then scanned into computer images and spots analyzed using Immunospot-brand software (from CTL Technologies).

[3] = Systolic blood pressure in the study cohort; format: in vivo, human; conditions: every clinic visit at 3-month intervals
Method: FIG. 1A is a graph depicting the systolic blood pressure in the study cohort. (The study cohort is described in the Examples.) Blood pressure was assessed at every clinic visit at 3-month intervals. […] Data shown are mean±standard deviation.”
as §1, §2

[4] = Estimated glomerular filtration rate (eGFR) in the study cohort; format: in vivo, human; conditions: with institution of ARB therapy, compared to control group
Method: FIG. 1B is a graph depicting the estimated glomerular filtration rate (eGFR) in the study cohort. Estimated GFR was calculated using the second equation derived by Nankivell et al. at the time points designated in the Examples. […] The eGFR in the ARB-treated cohort (-o-) declined slightly after treatment as compared to the control group (-▪-). Data shown are mean±standard deviation.
as §1
as §2, with “production.” for “production. Subsequent whole blood samples were obtained at three-month intervals for serial analyses.”

STAT1 = conditions: losartan treatment; cited from earlier work
STAT3 = conditions: losartan treatment; cited from earlier work

Compound: CCCc1nc2c(C)cc(-c3nc4ccccc4n3C)cc2n1Cc1ccc(-c2ccccc2C(=O)O)cc1 [Telmisartan, 4′-[(1,4′-dimethyl-2′-propyl [2,6′-bi-1H-benzimidazol]-1′-yl)methyl]-[1,1′-biphenyl]-2-carboxylic acid]
- solubility in strong acids ([1]; strong acids (except HCl)): sparingly soluble
- solubility in strong bases ([1]; strong bases): soluble
- solubility in water within a pH range ([1]; water, pH range of from 3 to 9): practically insoluble

Compound: CCCCc1nc(Cl)c(C(=O)O)n1Cc1ccc(-c2ccccc2-c2nn[nH]n2)cc1 [active metabolite of losartan]
- plasma-free fraction (plasma proteins): 0.2%

Compound: CCCCc1nc(Cl)c(CO)n1Cc1ccc(-c2ccccc2-c2nnn[nH]2)cc1.[K] [losartan, 2-butyl-4-chloro-1-[p-(o-1H-tetrazol-5-ylphenyl)benzyl]imidazole-5-methanol monopotassium salt]
- urinary H2O2 excretion (urinary H2O2; 6 months of treatment): 2.17 ± 0.42 µM
- urinary H2O2 excretion (urinary H2O2; 9 months of treatment, p<0.05 vs. time 0): 1.65 ± 0.49 µM
- urinary H2O2 (urinary H2O2; baseline (time 0), ARB cohort): 2.51 ± 0.62 µM
- reduction in T lymphocyte proliferation indices versus the control group ([2]; 6 month of losartan treatment, p<0.005): 69±47 % decrease
- reduction in T lymphocyte proliferation indices versus the control group ([2]; 9 month of losartan treatment, p<0.05): 52±21 % decrease
- Δ proliferation index (change from baseline) ([2]; three, six, and nine months, p<0.04): significant reduction
- IFN-Γ producing cells (ELISpot) (IFN-Γ; 3 months, p=0.01 vs control): 4127±1289 spots per 1×10^6 cells
- IFN-Γ producing cells (ELISpot) (IFN-Γ; 6 months, p=0.05 vs control): 3899±1508 spots per 1×10^6 cells
- IFN-Γ producing cells (ELISpot) (IFN-Γ; 9 months, p<0.001 vs control): 3845±1493 spots per 1×10^6 cells
- IFN-Γ producing cells (ELISpot) (IFN-Γ; 12 months, p<0.05 vs control): 4276±1456 spots per 1×10^6 cells
- IL-4 or IL-5 production (IL-4 or IL-5): no significant change
- systolic blood pressure, ARB-treated versus non-ARB-treated cohort [3]: no significant differences
- eGFR [4]: slight reduction
- plasma-free fraction (plasma proteins): 1.3%
- solubility in common organic solvents ([1]; acetonitrile and methyl ethyl ketone): slightly soluble
- solubility in alcohols ([1]; alcohols): soluble
- solubility in water ([1]; water): freely soluble
- phosphorylation of STAT1 (STAT1): decrease phosphorylation
- phosphorylation of STAT3 (STAT3): decrease phosphorylation
